Laboratory results: patent US10633350B2, “Diphenyl derivatives and uses thereof” (NOVARTIS AG, priority 2017, dated 2020)
Where two headings read alike, the source gives them in different places.

Assays:
[1] = test system: FoxO3a; assay: FoxO3a inhibition assay (GFP-FoxO3a nuclear to cytoplasmic translocation) in U2OS GFP-FoxO3a H212R reporter cells; type: cell-based; conditions: serum starved overnight, 30 minutes compound treatment, ratio of nuclear to cytosolic GFP intensity, AC50 = concentration that results in 50% activation or inhibition, read-out: FoxO AC50
Protocol: (§1) Phosphorylation of Akt on S473 and FoxO3a nuclear to cytoplasmic translocation were used as readouts of PI3K/Akt/mTOR pathway activation downstream of growth factor signaling.
(§2) Reporter cell line. U2OS GFP-FoxO3a H212R reporter cell line was established by transducing U2OS cells with the retroviral plasmid pLEGFP-C1 containing FoxO3a H212R transgene and selecting for G418 resistant clones.
(§3) Reporter assay. U2OS GFP-FoxO3a H212R cells were plated in 384-well plates at 4000 cells per well in 30 microliters of McCoy's 5A medium containing 10% FBS. On day 1 the cells were washed with serum free medium and serum starved overnight. On day 2 the cells were treated with different doses of the compounds for 30 minutes, fixed with 4% Paraformaldehyde for 1 hour and stained with Phospho-AKT (Ser473) antibody (Cell Signaling Technology, catalog #4060) overnight at 4° C. After nuclei staining with Hoechst 33342 (Life Technologies, catalog # H3570) the plates were imaged with InCell 2000 (GE Healthcare Bio-Sciences). FoxO3a inhibition activity is calculated as the ratio of nuclear to cytosolic GFP intensity in percent. Akt activation is measured as the total cellular intensity of Phospho-Akt antibody staining in percent. DMSO control is set as 0% activity.

[2] = test system: Akt; assay: Akt activation assay (Phospho-AKT (Ser473) antibody staining) in U2OS GFP-FoxO3a H212R reporter cells; type: cell-based; conditions: Homo sapiens, 0.5 h, serum starved overnight, 30 minutes compound treatment, total cellular intensity of Phospho-Akt (Ser473) antibody staining, AC50 = concentration that results in 50% activation or inhibition
Protocol: as §1, §2, §3

Row | Compound | AC50 ([1]; Homo sapiens, 0.5 h) | AC50 [2] | AC50 [1]
1 | Cc1cc(C(N)=O)nn1-c1ccc(Cc2ccc(-c3ccc(CNC4CCC4)cc3)cc2)cc1 [Example 16-3] | 500 nM | 804 nM | 
2 | Cc1cc(C(N)=O)nn1-c1ccc(Cc2ccc(-c3ccc(C(C)(C)O)cn3)cc2)cc1 [Example 19, 1-(4-(4-(5-(2-hydroxypropan-2-yl)pyridin-2-yl)benzyl)phenyl)-5-methyl-1H-pyrazole-3-carboxamide] | 71 nM | 209 nM | 
3 | Cc1nc(C(N)=O)nn1-c1ccc(Cc2ccc(-c3cccnc3)cc2)cc1 [Example 15-2] | 277 nM | 888 nM | 
4 | Cc1nc(C(N)=O)nn1-c1ccc(Cc2ccc(-c3ccc(CN4CC[C@H](O)C4)cc3)cc2)cc1 [Example 39-5] | 8 nM | 22 nM | 
5 | Cc1cc(C(N)=O)nn1-c1ccc(Cc2ccc(C3=CCN(C)CC3)cc2)cc1 [Example 3-15, 5-methyl-1-(4-(4-(1-methyl-1,2,3,6-tetrahydropyridin-4-yl)benzyl)phenyl)-1H-pyrazole-3-carboxamide] | 31 nM | 83 nM | 
6 | Cc1nc(C(N)=O)nn1-c1ccc(Cc2ccc(-c3ccc(C(=O)N4CCN(C)CC4)cc3)cc2)cc1 [Example 15-3] | 60 nM | 188 nM | 
7 | Cc1nc(C(N)=O)nn1-c1ccc(Cc2ccc(-c3ccc(C(C)(C)CO)cn3)cc2)cc1 [Example 56, 1-(4-(4-(5-(1-hydroxy-2-methylpropan-2-yl)pyridin-2-yl)benzyl)phenyl)-5-methyl-1H-1,2,4-triazole-3-carboxamide] | 156 nM | 366 nM | 
8 | Cc1cc(C(N)=O)nn1-c1ccc(Cc2ccc(C3CCN(C)C3)cc2)cc1 (single isomer, unassigned) [Example 5-1, 5-methyl-1-(4-(4-(1-methylpyrrolidin-3-yl)benzyl)phenyl)-1H-pyrazole-3-carboxamide] |  | 1320 nM | 295 nM
9 | Cc1nc(C(N)=O)nn1-c1ccc(C(C)(C)c2ccc(-c3ccc(C(N)C(F)(F)F)cc3)cc2)cc1 (centres unmarked) [Example 14, 1-(4-(2-(4′-(1-amino-2,2,2-trifluoroethyl)-[1,1′-biphenyl]-4-yl)propan-2-yl)phenyl)-5-methyl-1H-1,2,4-triazole-3-carboxamide] | 113 nM | 180 nM | 
10 | Cc1cc(C(N)=O)nn1-c1ccc(Cc2ccc(-c3ccc(C(=O)N4CCNCC4)cc3)cc2)cc1 [Example 24, 5-methyl-1-(4-((4′-(piperazine-1-carbonyl)-[1,1′-biphenyl]-4-yl)methyl)phenyl)-1H-pyrazole-3-carboxamide] | 33 nM | 155 nM | 
11 | Cc1nc(C(N)=O)nn1-c1ccc(Cc2ccc(-c3ccc(CN4CC[C@@H](O)C4)cc3)cc2)cc1 [Example 39-4] | 26 nM | 92 nM | 
12 | Cc1nc(C(N)=O)nn1-c1ccc(Cc2ccc(-c3ccc(C(=O)N4CCN[C@@H](C)C4)cc3)cc2)cc1 [Example 29, (S)-5-methyl-1-(4-((4′-(3-methylpiperazine-1-carbonyl)-[1,1′-biphenyl]-4-yl)methyl)phenyl)-1H-1,2,4-triazole-3-carboxamide] | 138 nM | 486 nM | 
13 | Cc1cc(C(N)=O)nn1-c1ccc(C(C)(C)c2ccc(-c3ccnc(N)c3)cc2)cc1 [Example 6-5, 1-(4-(2-(4-(2-aminopyridin-4-yl)phenyl)propan-2-yl)phenyl)-5-methyl-1H-pyrazole-3-carboxamide] | 134 nM | 415 nM | 
14 | Cc1nc(C(N)=O)nn1-c1ccc(C(C)(C)c2ccc(-c3ccc(N4CCCC4)nc3)cc2)cc1 [Example 13-14] | 386 nM | 1170 nM | 
15 | Cc1cc(C(N)=O)nn1-c1ccc(Cc2ccc(-c3ccc4c(c3)CCNC4)cc2)cc1 [Example 3-14, 5-methyl-1-(4-(4-(1,2,3,4-tetrahydroisoquinolin-6-yl)benzyl)phenyl)-1H-pyrazole-3-carboxamide] | 53 nM | 161 nM | 
16 | Cc1cc(C(N)=O)nn1-c1ccc(Cc2ccc(-c3ccc(C(=O)N4CCNCC4)nc3)cc2)cc1 [Example 26, 5-methyl-1-(4-(4-(6-(piperazine-1-carbonyl)pyridin-3-yl)benzyl)phenyl)-1H-pyrazole-3-carboxamide] | 75 nM | 480 nM | 
17 | Cc1cc(C(N)=O)nn1-c1ccc(Cc2ccc(-c3ccnc(C(C)(C)O)c3)cc2)cc1 [Example 23, 1-(4-(4-(2-(2-hydroxypropan-2-yl)pyridin-4-yl)benzyl)phenyl)-5-methyl-1H-pyrazole-3-carboxamide] | 121 nM | 639 nM | 
18 | Cc1cc(C(N)=O)nn1-c1ccc(Cc2ccc(-c3ccc(C4(O)COC4)nc3)cc2)cc1 [Example 22, 1-(4-(4-(6-(3-hydroxyoxetan-3-yl)pyridin-3-yl)benzyl)phenyl)-5-methyl-1H-pyrazole-3-carboxamide] | 42 nM | 187 nM | 

Row | Compound | AC50 ([1]; Homo sapiens, 0.5 h) | AC50 [2] | AC50 [1]
19 | Cc1nc(C(N)=O)nn1-c1ccc(C(C)(C)c2ccc(-c3ccc(S(=O)(=O)N(C)C)cc3)cc2)cc1 [Example 13-2] | 112 nM | 252 nM | 
20 | Cc1nc(C(N)=O)nn1-c1ccc(Cc2ccc(-c3ccc(CN4CCC5(CCO5)CC4)cc3)cc2)cc1 [Example 39-37] | 81 nM | 270 nM | 
21 | Cc1nc(C(N)=O)nn1-c1ccc(Cc2ccc(-c3ccc(CN4CCN(C)[C@@H](C)C4)nc3)cc2)cc1 [Example 37, (S)-1-(4-(4-(6-((3,4-dimethylpiperazin-1-yl)methyl)pyridin-3-yl)benzyl)phenyl)-5-methyl-1H-1,2,4-triazole-3-carboxamide] | 276 nM | 498 nM | 
22 | Cc1nc(C(N)=O)nn1-c1ccc(C(C)(C)c2ccc(-c3ccc4nccnc4c3)cc2)cc1 [Example 13-4] | 429 nM | 1240 nM | 
23 | Cc1nc(C(N)=O)nn1-c1ccc(Cc2ccc(-c3ccc(CN4CCC(C(C)(C)O)CC4)cc3)cc2)cc1 [Example 39-3] | 37 nM | 120 nM | 
24 | Cc1cc(C(N)=O)nn1-c1ccc(Cc2ccc(-c3cccnc3)cc2)cc1 [Example 3-10, 5-methyl-1-(4-(4-(pyridin-3-yl)benzyl)phenyl)-1H-pyrazole-3-carboxamide] | 110 nM | 497 nM | 
25 | Cc1cc(C(N)=O)nn1-c1ccc(Cc2ccc(-c3ccc(CNC4COC4)cc3)cc2)cc1 [Example 16-4] | 41 nM | 120 nM | 
26 | Cc1nc(C(N)=O)nn1-c1ccc(C(C)(C)c2ccc(-c3ccc4ccncc4c3)cc2)cc1 [Example 13-5] | 147 nM | 446 nM | 
27 | Cc1cc(C(N)=O)nn1-c1ccc(C(C)(C)c2ccc(C3=CCC(N4CCOCC4)CC3)cc2)cc1 (centres unmarked) [Example 8, 5-methyl-1-(4-(2-(4′-morpholino-2′,3′,4′,5′-tetrahydro-[1,1′-biphenyl]-4-yl)propan-2-yl)phenyl)-1H-pyrazole-3-carboxamide] | 96 nM | 377 nM | 
28 | Cc1cc(C(N)=O)nn1-c1ccc(C(C)(C)c2ccc(C3=CCC(=O)CC3)cc2)cc1 [Example 7, 5-methyl-1-(4-(2-(4′-oxo-2′,3′,4′,5′-tetrahydro-[1,1′-biphenyl]-4-yl)propan-2-yl)phenyl)-1H-pyrazole-3-carboxamide] | 58 nM | 276 nM | 
29 | Cc1nc(C(N)=O)nn1-c1ccc(C(C)(C)c2ccc(-c3ccc(CN4CCOCC4)cc3)cc2)cc1 [Example 13-12] | 64 nM | 261 nM | 
30 | Cc1nc(C(N)=O)nn1-c1ccc(Cc2ccc(-c3ccc(OC4CCN(C)CC4)cc3)cc2)cc1 [Example 47, 5-methyl-1-(4-((4′-((1-methylpiperidin-4-yl)oxy)-[1,1′-biphenyl]-4-yl)methyl)phenyl)-1H-1,2,4-triazole-3-carboxamide] | 93 nM | 99 nM | 
31 | Cc1cc(C(N)=O)nn1-c1ccc(Cc2ccc(C3=CCCN(C)CC3)cc2)cc1 [Example 5-7, 5-methyl-1-(4-(4-(1-methyl-2,3,6,7-tetrahydro-1H-azepin-4-yl)benzyl)phenyl)-1H-pyrazole-3-carboxamide] | 412 nM | 1370 nM | 
32 | Cc1cc(-c2ccc(C(C)(C)c3ccc(-n4nc(C(N)=O)nc4C)cc3)cc2)ccn1 [Example 13-9] | 183 nM | 714 nM | 
33 | Cc1nnc(-c2ccc(-c3ccc(C(C)(C)c4ccc(-n5nc(C(N)=O)cc5C)cc4)cc3)cc2)o1 [Example 6-6, 5-methyl-1-(4-(2-(4′-(5-methyl-1,3,4-oxadiazol-2-yl)-[1,1′-biphenyl]-4-yl)propan-2-yl)phenyl)-1H-pyrazole-3-carboxamide] | 283 nM | 842 nM | 
34 | Cc1nc(C(N)=O)nn1-c1ccc(Cc2ccc(-c3ccc(CN4CCC5(COC5)C4)cc3)cc2)cc1 [Example 38-1, 1-(4-((4′-((2-oxa-6-azaspiro[3.4]octan-6-yl)methyl)-[1,1′-biphenyl]-4-yl)methyl)phenyl)-5-methyl-1H-1,2,4-triazole-3-carboxamide] | 2 nM |  | 
35 | Cc1nc(C(N)=O)nn1-c1ccc(Cc2ccc(-c3ccc(CN4CCCC(C(C)(C)O)C4)cc3)cc2)cc1 (centres unmarked) [Example 39-7] | 29 nM |  | 
